Among the data in patent US11505548B2, “Heterocyclic compounds and their use for treatment of helminthic infections and diseases” (Celgene Corporation, priority 2019, dated 2022) are IC50 values, retold here.

Each structure is given as a SMILES string.

This test deals with microfilariae of Dirofilaria immitis. The test can be described thus: Dirofilaria immitis, Microfilaria (DiMF) Assay. It is filed as cell-based. Conditions: read-out: D. immitis activity level (IC50 or MED). In short, it runs like this:
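D. immitis microfilariae were incubated in medium with DMSO-diluted compounds for about 72 h. Survival or paralysis was scored subjectively under the microscope. Values are Minimum Effective Dose (MED).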

The term IC50 denotes the concentration at which inhibition is half-maximal. Consider `CC(C)Oc1ccc(-c2n[nH]c(Nc3ncccc3C(F)(F)F)n2)nc1` [Compound 70, N-(3-(5-isopropoxy-pyridin-2-yl)-1H-1,2,4-triazol-5-yl)-3-(trifluoromethyl) pyridin-2-amine], for which the IC50 was in the range of 500 to 5000 nM. Regarding `COc1cccnc1Nc1nc(-c2ccc(OC3CC(F)(F)C3)cn2)ns1` [Compound 137, 3-(5-(3,3-difluorocyclo-butoxy)pyridin-2-yl)-N-(3-methoxypyridin-2-yl)-1,2,4-thiadiazol-5-amine], the IC50 lay in the range of 500 to 5000 nM. For `Cc1cc(C#N)cnc1Nc1nc(-c2ccc(OC(C)C)cn2)ns1` [Compound 231, 6-(3-(5-isoprop-oxypyridin-2-yl)-1,2,4-thiadiazol-5-ylamino)-5-methyl-nicotinonitrile] the value was 200 to 500 nM. The result for `CC(C)c1cccnc1Nc1nc(-c2ccc(O[C@@H]3CCN(C4CC4)C[C@@H]3F)cn2)ns1` [Compound 89, 3-(5-((3S,4R)-1-cyclopropyl-3-fluoro-piperidin-4-yloxy)pyridin-2-yl)-N-(3-isopropylpyridin-2-yl)-1,2,4-thiadiazol-5-amine] reads less than 200 nM; that for `CN1CCC(Oc2ccnc(-c3nsc(Nc4ncccc4C(F)(F)F)n3)c2)CC1` [Compound 62, 3-(4-(1-methyl-piperidin-4-yloxy)pyridin-2-yl)-N-(3-(trifluoromethyl)pyridin-2-yl)-1,2,4-thiadiazol-5-amine], 500 to 5000 nM. The result for `CN1CCC(Oc2ccc(-c3nsc(Nc4ncccc4C(F)(F)F)n3)nc2)CC1` [Compound 55, 3-(5-(1-methyl-piperidin-4-yloxy)pyridin-2-yl)-N-(3-(trifluoromethyl)pyridin-2-yl)-1,2,4-thiadiazol-5-amine] reads 500 to 5000 nM; that for `CNc1cccnc1Nc1nc(-c2cc(C)ccn2)ns1` [Compound 23, N3-methyl-N2-(3-(4-methylpyridin-2-yl)-1,2,4-thiadiazol-5-yl) pyridine-2,3-diamine], 200 to 500 nM; that for `COc1ccc(Nc2nc(-c3ccccn3)ns2)nc1` [Cmpd 2, N-(5-methoxy-pyridin-2-yl)-3-(pyridin-2-yl)-1,2,4-thiadiazol-5-amine], 500 to 5000 nM. In the case of `Cc1ccnc(Nc2nc(-c3ncccc3C)ns2)c1` [Compound 238, 3-(3-methyl-pyridin-2-yl)-N-(4-methyl-pyridin-2-yl)-1,2,4-thiadiazol-5-amine], the IC50 was 200 to 500 nM.

For `COC(=O)c1cc(-c2nsc(Nc3ncccc3C)n2)ncc1OC(C)C` [Compound 196, methyl 5-isopropoxy-2-(5-(3-methylpyridin-2-ylamino)-1,2,4-thiadiazol-3-yl)isonicotinate], the concentration for half-maximal inhibition (IC50) was 200 to 500 nM. For the molecule `COc1ccnc(-c2nsc(Nc3ccc(C(C)C)cn3)n2)c1` [Compound 177, N-(5-isopropyl-pyridin-2-yl)-3-(4-methoxy-pyridin-2-yl)-1,2,4-thiadiazol-5-amine], the IC50 was less than 200 nM. The result for `CC(C)Oc1ccc(-c2nsc(Nc3ncccc3C(=O)N(C)C3CC(F)(F)C3)n2)nc1` [Compound 191, N-(3,3-difluoro-cyclobutyl)-2-(3-(5-isoprop-oxypyridin-2-yl)-1,2,4-thiadiazol-5-ylamino)-N-methyl-nicotinamide] reads 500 to 5000 nM; that for `CC(=O)N(C)c1cccnc1Nc1nc(-c2cc(C(C)C)c(C)cn2)ns1` [Compound 223, N-(2-(3-(4-isopropyl-5-methylpyridin-2-yl)-1,2,4-thiadiazol-5-ylamino)pyridin-3-yl)-N-methyl-acetamide], 200 to 500 nM; that for `COc1cc(C(C)C)cnc1Nc1nc(-c2ccc(OC(C)C)cn2)ns1` [Compound 166, 3-(5-isopropoxy-pyridin-2-yl)-N-(5-isopropyl-3-methoxypyridin-2-yl)-1,2,4-thiadiazol-5-amine], 500 to 5000 nM. With `Cc1cnc(Nc2nc(-c3cc(C(=O)N(C)C)c(OC(C)C)cn3)ns2)c(C(F)(F)F)c1` [Compound 254, 5-isopropoxy-N,N-dimethyl-2-(5-(5-methyl-3-(trifluoromethyl)pyridin-2-ylamino)-1,2,4-thiadiazol-3-yl)isonico-tinamide], the IC50 fell in the range of 500 to 5000 nM. In the case of `c1ccc(-c2nsc(Nc3ccc(N4CCCCC4)cn3)n2)nc1` [Cmpd 6, N-(5-(piperidin-1-yl)pyridin-2-yl)-3-(pyridin-2-yl)-1,2,4-thiadiazol-5-amine], the IC50 lay within 500 to 5000 nM.

For `O=C(NC1CC(F)(F)C1)c1ccc(Nc2nc(-c3ccc(OC4CC4)cn3)ns2)nc1` [Compound 107, 6-(3-(5-cyclo-propoxypyridin-2-yl)-1,2,4-thiadiazol-5-ylamino)-N-(3,3-difluoro-cyclobutyl) nicotinamide], the IC50 was in the range of 500 to 5000 nM.
